Measured values: patent US12233130B2, “Covalently-modified steroid acid-peptides having enhanced stability and/or biological activity” (DEFENCE THERAPEUTICS INC., priority 2022, dated 2025)
Residues, ends and D or L forms follow the SMILES beside them. *: point of attachment. Chenodeoxycholyl = C[C@H](CCC(=O)*)[C@H]1CC[C@H]2[C@@H]3[C@H](O)C[C@@H]4C[C@H](O)CC[C@]4(C)[C@H]3CC[C@]12C; Cholyl = C[C@H](CCC(=O)*)[C@H]1CC[C@H]2[C@@H]3[C@H](O)C[C@@H]4C[C@H](O)CC[C@]4(C)[C@H]3C[C@H](O)[C@]12C

How the values were obtained:
EL4 lymphoma = experiment: EL4 tumor model in vivo (tumor growth, survival); design: species or system mice; conditions: highest tested dose (190 μM), every 48 h, 5 injections
Method: Female C57BL/6 mice (n=10/group) received a SC injection of 5×10^5 EL4 cells at Day 0. […] For all depletion studies, antibodies were injected via the intraperitoneal route at days 0, 3 and 6 at a concentration of 200 μg/injection. Tumor size and animal survival for all of the above listed in vivo studies was followed thereafter using a digital caliber until reaching endpoints (ulceration or a tumor volume ≥1000 mm^3).

EL4 lymphoma cells = experiment: Apoptosis analysis by flow cytometry (Annexin-V/PI); format: cell-based
Method: (§1) Apoptosis analysis was conducted by flow-cytometry. Briefly, target cells were first treated then washed. Treated cells were then re-suspended in Annexin-V staining buffer prior to staining with Annexin-V and propidium iodine (PI). Fifteen minutes later, cells were washed prior to analysis using BD FACS™ Diva on CANTOII™.

macrophages = experiment: Apoptosis analysis by flow cytometry on normal cells; format: cell-based; conditions: 190 μM
Method: as §1

[1] = test system: mesenchymal stem cells (MSCs); experiment: as above; format: cell-based; conditions: 190 μM
Method: as §1

[2] = test system: bone marrow-derived dendritic cells (DCs); experiment: as above; format: cell-based, mouse; conditions: 190 μM
Method: Mouse bone marrow derived DCs (BMDCs) were generated by flushing the whole marrow from mouse femurs using RPMI™ 1640 supplemented with 10% fetal bovine serum (FBS), 50 U/mL Penicillin-Streptomycin, 2 mM L-glutamine, 10 mM HEPES, 1% MEM Non-essential Amino Acids, 1 mM Sodium Pyruvate, 0.5 mM β-mercaptoethanol. Following red blood cell lysis, cells were then cultured in media supplemented with 50 ng/ml murine recombinant GM-CSF. The media was changed on days 2, 4, 6 and 8. On day 9, the media was replaced to include recombinant murine GM-CSF and LPS from Escherichia coli 0111 (1 ng/mL) to stimulate DC maturation. Mature DCs were assessed by flow cytometry for their surface expression of CD3, CD19, NK1.1, CD11c, CD80, CD86, and I-A^b.
as §1

[3] = test system: EL4 lymphoma, B16 melanoma, E0771 breast cancer, CT-26 colon carcinoma, 4T1 breast cancer, MBA-MD-468, H460 and A549 lung cancer cells; experiment: Cytotoxicity screen of bile acid-SV40 conjugates (Annexin-V) on eight cancer cell lines; format: cell-based; conditions: 190 μM, all eight tumor cell lines tested
Method: Annexin-V staining percentage after treatment with different bile acid-SV40 conjugates (190 μM) is shown relative to live cancer cells (i.e., PBS treated cancer cells) by flow cytometry. Cancer cell lines tested were EL4 lymphoma, B16 melanoma, E0771 breast cancer, CT-26 colon carcinoma, 4T1 breast cancer, MBA-MD-468 triple-negative breast cancer, human H460 lung cancer, and human A549 lung cancer. […] SV40 alone was also tested as a negative control.
as §1

EL4 cells = experiment: Endosomal escape: apoptosis assay with exogenous cytochrome C; format: cell-based; conditions: cytochrome C alone
Method: Endosomal leakage was assessed using two different approaches; the first strategy utilizes the FRET sensor CCF4-AM, a β-lactamase substrate. Briefly, EL4 cells were treated with 1 μM CCF4-AM for 1 h followed by the addition of 10 mg/ml of β-lactamase in the presence or absence of CA-C-SV40 (at concentration of 190 μM) for 3 h at 37° ° C. The cells were then washed, and fresh media added for an incubation period of 16 h at 37° C. The loss of FRET signal between the coumarin (donor) and fluorescein (acceptor) fluorophores was quantified by flow cytometry. For the apoptosis assay, 10^5 EL4 cells were first supplemented with 10 mg/ml of exogenous rCyt-C for 6 h at 37° C. in the presence or absence of CA-C-SV40 (at a concentration of 190 μM). Once the incubation period completed, the cells were washed with ice cold PBS, then stained for Annexin-V according to manufacturer's instructions prior to analysis using BD FACS Diva on CANTOII.
Cytochrome C is a protein that is normally entrapped in the mitochondria but can be released upon intrinsic signaling known to trigger apoptosis. An experiment was designed where recombinant cytochrome C was added to EL4 cells either alone or in combination with CA-C-SV40 ([…]) (FIG. 3A).

**Q.** `CSCC[C@H](NC(=O)[C@H](CS)NC(=O)CC[C@@H](C)[C@H]1CC[C@H]2[C@@H]3[C@H](O)C[C@@H]4C[C@H](O)CC[C@]4(C)[C@H]3C[C@H](O)[C@]12C)C(=O)NCC(=O)N[C@@H](CCCNC(=N)N)C(=O)N[C@H](C(=O)N[C@@H](CCCNC(=N)N)C(=O)N[C@H](C(=O)N[C@@H](CCCCN)C(=O)N[C@H](C(=O)N[C@H](C(=O)N[C@@H](CCCCN)C(=O)N[C@@H](CCCCN)C(=O)N[C@@H](C)C(=O)N[C@@H](C)C(=O)NCC(=O)NCC(=O)O)C(C)C)[C@@H](C)O)[C@@H](C)O)C(C)C` [CA-C-NLS1 RPS17] (Cholyl-CMGRVRTKTVKKAAGG-OH; N-terminus and C-terminus assumed) was tested. Which tumor growth (EL4 lymphoma) did it give?
**A.** Its tumor growth is “significantly delayed tumor growth”.

**Q.** With `CC[C@H](C)[C@H](NC(=O)[C@H](CCCNC(=N)N)NC(=O)[C@H](CCCCN)NC(=O)[C@H](CCSC)NC(=O)[C@H](CC(C)C)NC(=O)[C@H](Cc1c[nH]cn1)NC(=O)[C@@H](NC(=O)[C@@H](NC(=O)[C@H](Cc1ccc(O)cc1)NC(=O)CNC(=O)[C@H](C)NC(=O)[C@@H](NC(=O)[C@H](CCCCN)NC(=O)[C@H](CC(N)=O)NC(=O)[C@H](CCCNC(=N)N)NC(=O)[C@H](CC(C)C)NC(=O)[C@H](CCCCN)NC(=O)[C@H](CCCCN)NC(=O)[C@H](CO)NC(=O)[C@H](CS)NC(=O)CC[C@@H](C)[C@H]1CC[C@H]2[C@@H]3[C@H](O)C[C@@H]4C[C@H](O)CC[C@]4(C)[C@H]3C[C@H](O)[C@]12C)[C@@H](C)CC)C(C)C)[C@@H](C)O)C(=O)O` [CA-C-NLS3 RPS17] (Cholyl-CSKKLRNKIAGYVTHLMKRI-OH; N-terminus and C-terminus assumed) as the molecule, how does the tumor growth (EL4 lymphoma) read?
**A.** Its tumor growth is “significantly delayed tumor growth”.

**Q.** For `CC(C)[C@H](NC(=O)[C@H](CCCCN)NC(=O)[C@H](CCCNC(=N)N)NC(=O)[C@H](CCCCN)NC(=O)[C@H](CCCCN)NC(=O)[C@H](CCCCN)NC(=O)[C@@H]1CCCN1C(=O)CNC(=O)[C@H](Cc1ccc(O)cc1)NC(=O)CNC(=O)[C@H](CS)NC(=O)CC[C@@H](C)[C@H]1CC[C@H]2[C@@H]3[C@H](O)C[C@@H]4C[C@H](O)CC[C@]4(C)[C@H]3C[C@H](O)[C@]12C)C(=O)NCC(=O)NCC(=O)O` [CA-C-SV40] (Cholyl-CGYGPKKKRKVGG-OH), which “cytotoxicity of cholic acid-NLS conjugates” value (EL4 lymphoma cells; 190 μM, Annexin-V staining) is on record?
**A.** The value was “notably higher than that of CA-C-GWG-SV40”.

**Q.** What about the “apoptosis in normal or healthy cells” value (macrophages) of the same molecule?
**A.** Its value is “induce apoptosis”.

**Q.** And the “apoptosis in normal or healthy cells” value [1]?
**A.** The value was “induce apoptosis”.

**Q.** What about the “apoptosis in normal or healthy cells” value [2] of the same molecule?
**A.** Its value is “induce apoptosis”.

**Q.** Which cytotoxic activity [3] does the source give for `CC(C)[C@H](NC(=O)[C@H](CCCCN)NC(=O)[C@H](CCCNC(=N)N)NC(=O)[C@H](CCCCN)NC(=O)[C@H](CCCCN)NC(=O)[C@H](CCCCN)NC(=O)[C@@H]1CCCN1C(=O)CNC(=O)[C@H](Cc1ccc(O)cc1)NC(=O)CNC(=O)[C@H](CS)NC(=O)CC[C@@H](C)[C@H]1CC[C@H]2[C@@H]3[C@H](O)C[C@@H]4C[C@H](O)CC[C@]4(C)[C@H]3CC[C@]12C)C(=O)NCC(=O)NCC(=O)O` [CDCA-C-SV40] (Chenodeoxycholyl-CGYGPKKKRKVGG-OH) here?
**A.** The cytotoxic activity was 100%.

**Q.** Which “rescue from CA-C-SV40-triggered cell death” value (EL4 lymphoma cells; CA-C-SV40 at higher doses (IC100)) does the source give for `CC(=O)N[C@@H](CS)C(=O)O` [NAC, N-acetylcysteine] here?
**A.** Its value is “incomplete but significant blockade”.

**Q.** How did the cytotoxic activity (EL4 lymphoma cells; separately, at any of the concentrations tested) turn out when “SV40 NLS: nuclear localization signal from SV40 large T-antigen (SEQ ID NO: 2), tested alone as negative control” was run?
**A.** The cytotoxic activity was “did not exhibit any cytotoxic activity”.

**Q.** “cytochrome C: recombinant cytochrome C added to EL4 cells as cargo” was tested. Which cell death (EL4 cells) did it give?
**A.** The cell death was “did not trigger cell death”.
